Results published in PubChem BioAssay (NCI).
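Five concentrations, 48 hours, 96-well plates. TGI is the concentration that stops growth completely.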

Tests used:
Experiment in all cases: NCI anticancer screen, dose series, 48 h
MALME-3M melanoma = tested on: MALME-3M melanoma
SF-539 CNS = tested on: SF-539 CNS
NCI-H23 lung = tested on: NCI-H23 lung
TK-10 renal = tested on: TK-10 renal
SNB-75 CNS = tested on: SNB-75 CNS
SF-268 CNS = tested on: SF-268 CNS
BT-549 breast = tested on: BT-549 breast
EKVX NSCLC = tested on: EKVX NSCLC
COLO 205 colon = tested on: COLO 205 colon
NCI-H460 lung = tested on: NCI-H460 lung
786-0 renal = tested on: 786-0 renal
A498 renal = tested on: A498 renal
SK-MEL-28 melanoma = tested on: SK-MEL-28 melanoma
A549 NSCLC = tested on: A549 NSCLC
RXF 393 renal = tested on: RXF 393 renal
OVCAR-3 ovarian = tested on: OVCAR-3 ovarian
SNB-19 CNS = tested on: SNB-19 CNS
OVCAR-5 ovarian = tested on: OVCAR-5 ovarian
OVCAR-8 ovarian = tested on: OVCAR-8 ovarian
T-47D breast = tested on: T-47D breast
DU-145 prostate = tested on: DU-145 prostate
HOP-62 NSCLC = tested on: HOP-62 NSCLC
MDA-MB-435 = tested on: MDA-MB-435
LOX IMVI melanoma = tested on: LOX IMVI melanoma
NCI-H522 lung = tested on: NCI-H522 lung
MDA-MB-231 breast = tested on: MDA-MB-231 breast
ACHN renal = tested on: ACHN renal
SR leukemia = tested on: SR leukemia
MCF7 breast = tested on: MCF7 breast
RPMI-8226 leukemia = tested on: RPMI-8226 leukemia
HCT-15 colon = tested on: HCT-15 colon
NCI-H226 lung = tested on: NCI-H226 lung
NCI/ADR-RES ovarian = tested on: NCI/ADR-RES ovarian
SK-OV-3 ovarian = tested on: SK-OV-3 ovarian
M14 melanoma = tested on: M14 melanoma
HT29 colon = tested on: HT29 colon
SF-295 CNS = tested on: SF-295 CNS
SK-MEL-2 melanoma = tested on: SK-MEL-2 melanoma
HCC-2998 colon = tested on: HCC-2998 colon
OVCAR-4 ovarian = tested on: OVCAR-4 ovarian
UACC-62 melanoma = tested on: UACC-62 melanoma
MDA-N = tested on: MDA-N
U251 CNS = tested on: U251 CNS
SN12C renal = tested on: SN12C renal
SK-MEL-5 melanoma = tested on: SK-MEL-5 melanoma
PC-3 prostate = tested on: PC-3 prostate
UO-31 renal = tested on: UO-31 renal
HS 578T breast = tested on: HS 578T breast
SW-620 colon = tested on: SW-620 colon
HL-60(TB) leukemia = tested on: HL-60(TB) leukemia
KM12 colon = tested on: KM12 colon
IGROV1 ovarian = tested on: IGROV1 ovarian

Cc1cc2c(c(S(=O)(=O)c3ccccc3[N+](=O)[O-])c1)NCCC2
TGI (MALME-3M melanoma): > 100 µM | TGI (SF-539 CNS): > 100 µM | TGI (NCI-H23 lung): > 100 µM | TGI (TK-10 renal): > 100 µM | TGI (SNB-75 CNS): > 100 µM | TGI (SF-268 CNS): > 100 µM | TGI (BT-549 breast): > 100 µM | TGI (EKVX NSCLC): > 100 µM | TGI (COLO 205 colon): > 100 µM | TGI (NCI-H460 lung): > 100 µM | TGI (786-0 renal): > 100 µM | TGI (A498 renal): > 100 µM | TGI (SK-MEL-28 melanoma): > 100 µM | TGI (A549 NSCLC): > 100 µM | TGI (RXF 393 renal): > 100 µM | TGI (OVCAR-3 ovarian): > 100 µM | TGI (SNB-19 CNS): > 100 µM | TGI (OVCAR-5 ovarian): > 100 µM | TGI (OVCAR-8 ovarian): > 100 µM | TGI (T-47D breast): 40.2 µM | TGI (DU-145 prostate): > 100 µM | TGI (HOP-62 NSCLC): > 100 µM | TGI (MDA-MB-435): > 100 µM | TGI (LOX IMVI melanoma): > 100 µM | TGI (NCI-H522 lung): > 100 µM | TGI (MDA-MB-231 breast): > 100 µM | TGI (ACHN renal): > 100 µM | TGI (SR leukemia): > 100 µM | TGI (MCF7 breast): > 100 µM | TGI (RPMI-8226 leukemia): > 100 µM | TGI (HCT-15 colon): > 100 µM | TGI (NCI-H226 lung): > 100 µM | TGI (NCI/ADR-RES ovarian): > 100 µM | TGI (SK-OV-3 ovarian): > 100 µM | TGI (M14 melanoma): > 100 µM | TGI (HT29 colon): > 100 µM | TGI (SF-295 CNS): > 100 µM | TGI (SK-MEL-2 melanoma): > 100 µM | TGI (HCC-2998 colon): > 100 µM | TGI (OVCAR-4 ovarian): > 100 µM | TGI (UACC-62 melanoma): > 100 µM | TGI (MDA-N): > 100 µM | TGI (U251 CNS): > 100 µM | TGI (SN12C renal): > 100 µM | TGI (SK-MEL-5 melanoma): > 100 µM | TGI (PC-3 prostate): > 100 µM | TGI (UO-31 renal): > 100 µM | TGI (HS 578T breast): > 100 µM | TGI (SW-620 colon): > 100 µM | TGI (HL-60(TB) leukemia): > 100 µM | TGI (KM12 colon): > 100 µM | TGI (IGROV1 ovarian): > 100 µM
